Values quoted from earlier work, collected in PMC9171782 (Proceedings of the National Academy of Sciences of the …, 2022).

Tests used:
[1] = test system: GLP-1R with mutation of W33; conditions: mutation of W33 conserved in human and primate GLP-1Rs

| bioavailability (noninjectable formulation in the clinic) | gastrointestinal complaints (such as nausea and vomiting) | Compound | agonist activity at W33-mutated GLP-1R [1] | insulinotropic activity upon oral intake (cynomolgus monkeys) |
| --- | --- | --- | --- | --- |
| low bioavailability | frequent gastrointestinal complaints | Semaglutide | – | – |
| – | – | N#Cc1ccc(COc2cccc(C3=CCN(Cc4nc5ccc(C(=O)O)nc5n4C[C@@H]4CCO4)CC3)n2)c(F)c1 [RGT1383] | failed to elicit agonist activity | – |
| – | – | Cc1cc(-n2nc3c(c2-n2ccn(-c4ccc5c(cnn5C)c4F)c2=O)[C@H](C)N(C(=O)c2cc4cc(N5CCOC(C)(C)C5)ccc4n2[C@@]2(c4noc(=O)[nH]4)C[C@@H]2C)CC3)cc(C)c1F [CHU-128] | failed to elicit agonist activity | – |
| – | – | N#Cc1ccc(COc2cccc(C3CCN(Cc4nc5ccc(C(=O)O)cc5n4C[C@@H]4CCO4)CC3)n2)c(F)c1 [PF-06882961] | failed to elicit agonist activity | demonstrated |
| – | – | Cc1cc(-n2nc3c(c2-n2ccn(-c4ccc5c(cnn5C)c4F)c2=O)[C@H](C)N(C(=O)c2cc4cc([C@H]5CCOC(C)(C)C5)ccc4n2[C@@]2(c4noc(=O)[nH]4)C[C@@H]2C)CC3)cc(C)c1F [LY3502970] | failed to elicit agonist activity | demonstrated |
